IC50 and GI50 data for 19 compounds are collected here from patent publication US20250179059A1 (The Regents of the University of California, priority 2021, published 2025).

Test [1] has as its target T1, human BRD4 bromodomain II (Homo sapiens, UniProt O60885).
T1 construct: human BRD4 bromodomain II [based on Genbank NM_058243, residues 349-460]; host or cells: E. coli
The test is described as follows: Bromodomain binding assay (AlphaScreen), BRD4 BDII. The method in brief:
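AlphaScreen competition: His6-BRD4 BDI (aa 44-170) or BDII (aa 349-460) vs biotin-H4(1-21) K5/K8/K12/K16Ac peptide; Ni-chelate acceptor/streptavidin donor beads. HEPES pH 7.5, NaCl, CHAPS, BSA, 1% DMSO; RT. 10-pt 3-fold titration, % peptide binding fitted → IC50.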
On the technique in general: Bead proximity is the source of the signal in Alpha formats.

For test [2], the system named is human SKM-1 acute myeloid leukemia cells. Kind of test: SKM-1 antiproliferation cell-based assay (ATPlite). The note with it: Homo sapiens. Summed up:
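Log-phase cells in RPMI 1640/15% FBS were seeded at 34722 cells/mL and exposed for 4 days to nine-concentration DMSO serial dilutions in triplicate. Viability was read as ATP luminescence (ATPlite 1step), and IC50 values came from variable-slope non-linear regression.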
Background: ATP-based viability assays read luminescence as a measure of living cells.

[3] abbreviates: AlphaScreen assay, Table C2, read-out: BRD4 BDII IC50.
Where [4] appears, read: SKM-1, 96 h, SKM-1 antiproliferation assay, 4 days, Table C2.
The mark [5] stands for this setting: BRD4 BDII AlphaScreen assay, read-out: BRD4 BD2 IC50.
Where [6] appears, read: SKM-1, SKM-1 antiproliferation assay.

Read-outs that look alike come from different tables or passages of the source.

Broadly, the IC50 is the concentration at which inhibition is half-maximal. Broadly, the GI50 is the concentration at which growth is held to half of that of the control. Higher therefore signals less potent growth inhibition. For the compound `Cn1ccn(-c2ccc(-c3cc(F)cc(-c4ccnc(N5CCC6(CCN6)C5)c4)c3O)cc2Cl)c1=O` (centres unmarked) [Example 641, 1-(3′-(2-(1,6-diazaspiro[3.4]octan-6-yl)pyridin-4-yl)-3-chloro-5′-fluoro-2′-hydroxy-[1,1′-biphenyl]-4-yl)-3-methyl-1H-imidazol-2(3H)-one], the IC50 in test [1] (setting [3]) lay within 0.01 to 1 nM. This compound registered a GI50 in test [2] (setting [4]) of 0.3 to 30 nM.

With `CN1CCN(c2ccc(-c3cccc(-c4cncc(N5CCNCC5)c4)c3O)cc2Cl)C1=O` [Example 293, 1-(3-chloro-2′-hydroxy-3′-(5-(piperazin-l-yl)pyridin-3-yl)-[1,1′-biphenyl]-4-yl)-3-methylimidazolidin-2-one], the IC50 in test [1] (setting [3]) was in the range of 1 to 10 nM. The GI50 in test [2] (setting [4]) fell in the range of 30 to 300 nM.

In the case of `O=C1CCCCN1c1ccc(-c2cccc(-c3ccnc(N4CCNCC4)c3)c2O)cc1Cl` [Example 282, 1-(3-chloro-2′-hydroxy-3′-(2-(piperazin-1-yl)pyridin-4-yl)-[1,1′-biphenyl]-4-yl)piperidin-2-one], in test [1] (setting [3]), the IC50 lay in the range of 10 to 100 nM. In test [2] (setting [4]), this compound showed a GI50 of 300 to 3000 nM.

For the compound `[2H]C([2H])([2H])C(=O)Nc1ccc(-c2cc(C)nc(-c3cccc(N4CCN(C(C)(C)C)CC4)c3)c2O)cc1Cl` [Example 1008, N-(4-(2-(3-(4-(tert-butyl)piperazin-1-yl)phenyl)-3-hydroxy-6-methylpyridin-4-yl)-2-chlorophenyl)-2,2,2-trideuteroacetamide], in test [1] (setting [5]), the IC50 lay in the range of 1 to 10 nM. In test [2] (setting [6]), this compound came in with a concentration for 50% growth inhibition (GI50) of 0.3 to 30 nM.

As to `[2H]C([2H])([2H])n1ccn(-c2ccc(-c3cc(F)cc(-c4cccc(N5CCN(C(C)(C)C)CC5)c4)c3O)cc2Cl)c1=O` [Example 886], the IC50 in test [1] (setting [5]) lay within 1 to 10 nM. In test [2] (setting [6]), this compound yielded a GI50 of 0.3 to 30 nM.

Turning to `Cn1ccn(-c2c(Cl)cc(-c3cc(F)cc(-c4ccnc(N5CCNCC5)c4)c3O)cc2Cl)c1=O` [Example 408, 1-(3,5-dichloro-5′-fluoro-2′-hydroxy-3′-(2-(piperazin-1-yl)pyridin-4-yl)-[1,1′-biphenyl]-4-yl)-3-methyl-1H-imidazol-2(3H)-one], the IC50 in test [1] (setting [3]) was in the range of 10 to 100 nM. For the same compound, in test [2] (setting [4]), the GI50 is 300 to 3000 nM.

As to `CN[C@H]1CCN(c2cncc(-c3cc(F)cc(-c4ccc(-n5ccn(C)c5=O)c(Cl)c4)c3O)c2)C1` [Example 476, (S)-1-(3-chloro-5′-fluoro-2′-hydroxy-3′-(5-(3-(methylamino)pyrrolidin-1-yl)pyridin-3-yl)-[1,1′-biphenyl]-4-yl)-3-methyl-1H-imidazol-2(3H)-one], in test [1] (setting [3]), the IC50 fell in the range of 0.01 to 1 nM. In test [2] (setting [4]), this compound showed a GI50 of 0.3 to 30 nM.

Take `CC(C)(C)N1CCN(c2cccc(-c3cc(F)cc(-c4ccc(-n5cc[nH]c5=O)c(Cl)c4)c3O)c2)CC1` [Example 928, 1-(3″-(4-(tert-butyl)piperazin-1-yl)-3-chloro-5′-fluoro-2′-hydroxy-[1,1′:3′,1″-terphenyl]-4-yl)-1H-imidazol-2(3H)-one]: in test [1] (setting [5]), the IC50 was 1 to 10 nM. In test [2] (setting [6]), this compound showed a GI50 of 30 to 300 nM.

For the compound `CC(C)(C)N1CCN(c2cccc(-c3nccc(-c4ccc(-n5cc[nH]c5=O)c(Cl)c4)c3O)c2)CC1` [Example 1038, 1-(4-(2-(3-(4-(tert-butyl)piperazin-1-yl)phenyl)-3-hydroxypyridin-4-yl)-2-chlorophenyl)-1H-imidazol-2(3H)-one], the half-inhibitory concentration (IC50) in test [1] (setting [5]) lay in the range of 10 to 100 nM. For the same compound, in test [2] (setting [6]), the GI50 was 30 to 300 nM.

Consider `CN1CCN(c2ccc(-c3cc(F)cc(-c4cnc(C#N)c(N5CCNCC5)c4)c3O)cc2Cl)C1=O` [Example 357, 5-(3′-chloro-5-fluoro-2-hydroxy-4′-(3-methyl-2-oxoimidazolidin-1-yl)-[1,1′-biphenyl]-3-yl)-3-(piperazin-1-yl)picolinonitrile], for which the IC50 in test [1] (setting [3]) lay in the range of 1 to 10 nM. Also, the GI50 in test [2] (setting [4]) is 30 to 300 nM.

Regarding `Cn1ccn(-c2ccc(-c3cc(F)cc(-c4cccc(N5CCN(C(C)(C)C)CC5)c4)c3O)cc2Cl)c1=O` [Example 734, 1-(3″-(4-(tert-butyl)piperazin-1-yl)-3-chloro-5′-fluoro-2′-hydroxy-[1,1′:3′,1″-terphenyl]-4-yl)-3-methyl-1H-imidazol-2(3H)-one], the IC50 in test [1] (setting [3]) lay within 0.01 to 1 nM. In test [2] (setting [4]), this compound yielded a GI50 of 0.3 to 30 nM.

As for `O=C1NCCN1c1ccc(-c2cccc(-c3ccnc(N4CCNCC4)c3)c2O)cc1F` [Example 231, 1-(3-fluoro-2′-hydroxy-3′-(2-(piperazin-1-yl)pyridin-4-yl)-[1,1′-biphenyl]-4-yl)imidazolidin-2-one], in test [1] (setting [3]), the IC50 lay within 1 to 10 nM. The GI50 in test [2] (setting [4]) is 300 to 3000 nM.

For `Cn1cc(-c2cc(F)cc(-c3ccc(-n4ccn(C)c4=O)c(Cl)c3)c2O)cc(N2CCC(N)CC2)c1=O` [Example 427, 3-(4-aminopiperidin-1-yl)-5-(3′-chloro-5-fluoro-2-hydroxy-4′-(3-methyl-2-oxo-2,3-dihydro-1H-imidazol-1-yl)-[1,1′-biphenyl]-3-yl)-1-methylpyridin-2(1H)-one], the IC50 in test [1] (setting [3]) lay within 1 to 10 nM. In addition, in test [2] (setting [4]), the GI50 was in the range of 300 to 3000 nM.

As to `Cn1ccn(-c2ccc(-c3cc(F)cc(-c4cc(N5CCNCC5)c5cc[nH]c5c4)c3O)cc2Cl)c1=O` [Example 479, 1-(3-chloro-5′-fluoro-2′-hydroxy-3′-(4-(piperazin-1-yl)-1H-indol-6-yl)-[1,1′-biphenyl]-4-yl)-3-methyl-1H-imidazol-2(3H)-one], the IC50 in test [1] (setting [3]) is 1 to 10 nM. Also, the 50% growth inhibitory concentration (GI50) in test [2] (setting [4]) lay within 0.3 to 30 nM.

With `CN1CCN(c2cc(-c3cc(F)cc(-c4ccc(-n5ccn(C)c5=O)c(Cl)c4)c3O)cc3c2cnn3C)CC1` [Example 604, 1-(3-chloro-5′-fluoro-2′-hydroxy-3′-(1-methyl-4-(4-methylpiperazin-1-yl)-1H-indazol-6-yl)-[1,1′-biphenyl]-4-yl)-3-methyl-1H-imidazol-2(3H)-one], the IC50 in test [1] (setting [3]) is 0.01 to 1 nM. The compound further gave a GI50 in test [2] (setting [4]) of 0.3 to 30 nM.

As to `CC(=O)Nc1ccc(-c2cccc(-c3cc(NCCO)nc(N4CCNCC4)c3)c2O)cc1F` [Example 333, N-(3-fluoro-2′-hydroxy-3′-(2-((2-hydroxyethyl)amino)-6-(piperazin-1-yl)pyridin-4-yl)-[1,1′-biphenyl]-4-yl)acetamide], the IC50 in test [1] (setting [3]) was 1 to 10 nM. The same compound yielded a GI50 in test [2] (setting [4]) of 30 to 300 nM.

`CN1CCN(c2ccc(-c3cc(F)cc(-c4cc(N5CCNCC5)c5cc[nH]c5c4)c3O)cc2Cl)C1=O` [Example 460, 1-(3-chloro-5′-fluoro-2′-hydroxy-3′-(4-(piperazin-1-yl)-1H-indol-6-yl)-[1,1′-biphenyl]-4-yl)-3-methylimidazolidin-2-one]: in test [1] (setting [3]), the 50% inhibitory concentration (IC50) is 1 to 10 nM. Further, in test [2] (setting [4]), the GI50 is 0.3 to 30 nM.

In the case of `COc1ncc(-c2cc(F)cc(-c3ccc(-n4ccn(C)c4=O)c(Cl)c3)c2O)cc1N1CC2CCC(C1)N2C(C)C` [Example 836, 1-(3-chloro-5′-fluoro-2′-hydroxy-3′-(5-(8-isopropyl-3,8-diazabicyclo[3.2.1]octan-3-yl)-6-methoxypyridin-3-yl)-[1,1′-biphenyl]-4-yl)-3-methyl-1H-imidazol-2(3H)-one], the IC50 in test [1] (setting [3]) was in the range of 1 to 10 nM. In test [2] (setting [4]), this compound displayed a GI50 of 0.3 to 30 nM.

As for `Cc1ccc(-c2cc(F)cc(-c3ccc(-n4ccn(C)c4=O)c(Cl)c3)c2O)cc1N1CCN(C(C)(C)C)CC1` [Example 800, 1-(3″-(4-(tert-butyl)piperazin-1-yl)-3-chloro-5′-fluoro-2′-hydroxy-4″-methyl-[1,1′:3′,1″-terphenyl]-4-yl)-3-methyl-1H-imidazol-2(3H)-one], in test [1] (setting [3]), the concentration for half-maximal inhibition (IC50) fell in the range of 0.01 to 1 nM. In test [2] (setting [4]), this compound yielded a GI50 of 0.3 to 30 nM.
